From patent publication US7642255B2, “Compounds and compositions as protein kinase inhibitors” (IRM LLC, priority 2004, dated 2010)

Key:
Format in all cases: cell-based
[1] = target: T1, T3151 Bcr-abl (Homo sapiens, UniProt P00519, T315I); test: Antiproliferative effect on Ba/F3 cells expressing mutant BCR-Abl T3151
T1 construct: BCR (N-terminal fusion partner); expressed in transfected cells; host or cells: Ba/F3 cells
Protocol: (§1) 32D-p210 cells are plated into 96 well TC plates at a density of 15,000 cells per well. 50 μL of two fold serial dilutions of the test compound (Cmax is 40 μM) are added to each well (STI571 is included as a positive control). After incubating the cells for 48 hours at 37° C., 5% CO2, 15 μL of MTT (Promega) is added to each well and the cells are incubated for an additional 5 hours. The optical density at 570 nm is quantified spectrophotometrically and IC50 values, the concentration of compound required for 50% inhibition, determined from a dose response curve.
(§2) Compounds of the invention are tested for their antiproliferative effect on Ba/F3 cells expressing either wild type or the mutant forms of BCR-Abl (G250E, E255V, T3151, F317L, M351T) that confers resistance or diminished sensitivity to STI571. The antiproliferative effect of these compounds on the mutant-BCR-Abl expressing cells and on the non transformed cells were tested at 10, 3.3, 1.1 and 0.37 μM as described above (in media lacking IL3). The IC50 values of the compounds lacking toxicity on the untransformed cells were determined from the dose response curves obtained as describe above.

[2] = target: T2, G250E Bcr-abl (Homo sapiens, UniProt P00519, G250E); test: Antiproliferative effect on Ba/F3 cells expressing mutant BCR-Abl G250E
T2 construct: BCR (N-terminal fusion partner); expressed in transfected cells; host or cells: Ba/F3 cells; the other entry of the earlier key: BCR (P11274, Breakpoint cluster region protein)
Protocol: as §1, §2

[3] = target: T3, wild type Bcr-abl (Homo sapiens, UniProt P00519); test: Antiproliferative effect on Ba/F3 cells expressing wild type BCR-Abl
T3 construct: BCR (N-terminal fusion partner); expressed in transfected cells; host or cells: Ba/F3 cells; the other entry of the earlier key: BCR (P11274, Breakpoint cluster region protein)
Protocol: as §1, §2

[4] = target: T4, F317L Bcr-abl (Homo sapiens, UniProt P00519, F317L); test: Antiproliferative effect on Ba/F3 cells expressing mutant BCR-Abl F317L
T4 construct: BCR (N-terminal fusion partner); expressed in transfected cells; host or cells: Ba/F3 cells; the other entry of the earlier key: BCR (P11274, Breakpoint cluster region protein)
Protocol: as §1, §2

[5] = target: T5, E255V Bcr-abl (Homo sapiens, UniProt P00519, E255V); test: Antiproliferative effect on Ba/F3 cells expressing mutant BCR-Abl E255V
T5 construct: BCR (N-terminal fusion partner); expressed in transfected cells; host or cells: Ba/F3 cells; the other entry of the earlier key: BCR (P11274, Breakpoint cluster region protein)
Protocol: as §1, §2

[6] = target: T6, M351T Bcr-abl (Homo sapiens, UniProt P00519, M351T); test: Antiproliferative effect on Ba/F3 cells expressing mutant BCR-Abl M351T
T6 construct: BCR (N-terminal fusion partner); expressed in transfected cells; host or cells: Ba/F3 cells; the other entry of the earlier key: BCR (P11274, Breakpoint cluster region protein)
Protocol: as §1, §2

- IC50 [1]: 3 nM
- IC50 [2]: 2 nM
- IC50 [3]: 5 nM
- IC50 [4]: 5 nM
- IC50 [5]: 5 nM
- IC50 [6]: 5 nM
SMILES: Cc1ccc(NC(=O)c2cccc(C(F)(F)F)c2)cc1N1Cc2cnc(Nc3cccc(N)c3)nc2N(C)C1=O [Example 2, N-{3-[7-(3-Amino-phenylamino)-1-methyl-2-oxo-1,4-dihydro-2H-pyrimido[4,5-d]pyrimidin-3-yl]-4-methyl-phenyl}-3-trifluoromethyl-benzamide]
